Laboratory results from PubChem BioAssay (NCI).
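48-hour exposure; five concentrations; linearly interpolated endpoints. GI50 = concentration required for 50% inhibition of growth. TGI: total growth inhibition.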

Assays:
Experiment in all cases: NCI tumour cell line growth inhibition, 48 h
A498 renal = tested on: A498 renal
A549 NSCLC = tested on: A549 NSCLC
CAKI-1 renal = tested on: CAKI-1 renal
CCRF-CEM leukemia = tested on: CCRF-CEM leukemia
COLO 205 colon = tested on: COLO 205 colon
DLD-1 colon = tested on: DLD-1 colon
DMS 114 small cell lung = tested on: DMS 114 small cell lung
DMS 273 small cell lung = tested on: DMS 273 small cell lung
EKVX NSCLC = tested on: EKVX NSCLC
HCC-2998 colon = tested on: HCC-2998 colon
HCT-116 colon = tested on: HCT-116 colon
HCT-15 colon = tested on: HCT-15 colon
HL-60(TB) leukemia = tested on: HL-60(TB) leukemia
HOP-18 NSCLC = tested on: HOP-18 NSCLC
HOP-62 NSCLC = tested on: HOP-62 NSCLC
HOP-92 NSCLC = tested on: HOP-92 NSCLC
HT29 colon = tested on: HT29 colon
IGROV1 ovarian = tested on: IGROV1 ovarian
K-562 leukemia = tested on: K-562 leukemia
KM12 colon = tested on: KM12 colon
KM20L2 colon = tested on: KM20L2 colon
LOX IMVI melanoma = tested on: LOX IMVI melanoma
M19-MEL melanoma = tested on: M19-MEL melanoma
MALME-3M melanoma = tested on: MALME-3M melanoma
MCF7 breast = tested on: MCF7 breast
MOLT-4 leukemia = tested on: MOLT-4 leukemia
NCI-H226 lung = tested on: NCI-H226 lung
NCI-H23 lung = tested on: NCI-H23 lung
NCI-H460 lung = tested on: NCI-H460 lung
NCI-H522 lung = tested on: NCI-H522 lung
NCI/ADR-RES ovarian = tested on: NCI/ADR-RES ovarian
OVCAR-3 ovarian = tested on: OVCAR-3 ovarian
OVCAR-4 ovarian = tested on: OVCAR-4 ovarian
OVCAR-5 ovarian = tested on: OVCAR-5 ovarian
OVCAR-8 ovarian = tested on: OVCAR-8 ovarian
P388 leukemia = tested on: P388 leukemia
P388/ADR leukemia = tested on: P388/ADR leukemia
RPMI-8226 leukemia = tested on: RPMI-8226 leukemia
RXF 393 renal = tested on: RXF 393 renal
SF-268 CNS = tested on: SF-268 CNS
SF-295 CNS = tested on: SF-295 CNS
SF-539 CNS = tested on: SF-539 CNS
SK-MEL-2 melanoma = tested on: SK-MEL-2 melanoma
SK-MEL-28 melanoma = tested on: SK-MEL-28 melanoma
SK-MEL-5 melanoma = tested on: SK-MEL-5 melanoma
SK-OV-3 ovarian = tested on: SK-OV-3 ovarian
SN12C renal = tested on: SN12C renal
SN12K1 renal = tested on: SN12K1 renal
SNB-19 CNS = tested on: SNB-19 CNS
SNB-75 CNS = tested on: SNB-75 CNS
SNB-78 CNS = tested on: SNB-78 CNS
SW-620 colon = tested on: SW-620 colon
U251 CNS = tested on: U251 CNS
UACC-257 melanoma = tested on: UACC-257 melanoma
UACC-62 melanoma = tested on: UACC-62 melanoma
UO-31 renal = tested on: UO-31 renal
XF 498 CNS = tested on: XF 498 CNS

`COC(=O)C1C(O)C(C)C(O)C(C)(O)/C=C/C=C(C)C(=O)Nc2c(C)c(OC(C)=O)c3c(c2O)C(=O)C(C)=C2OCOC(=C23)C(C)=CC(C)(O)C(O)C(C)C1OC(C)=O` (stereo not drawn) was tested, and the TGI (A498 renal) was greater than 56.2 µM, the TGI (A549 NSCLC) was greater than 100 µM and the GI50 (CAKI-1 renal) was 37.1 µM. It also gave a TGI (CAKI-1 renal) of 86.9 µM, a GI50 (CCRF-CEM leukemia) of 28.1 µM and a TGI (CCRF-CEM leukemia) of 55.8 µM. For the same compound, the TGI (COLO 205 colon) was 39.3 µM, the TGI (DLD-1 colon) was 43.3 µM and the TGI (DMS 114 small cell lung) was 25.4 µM. It also gave a TGI (DMS 273 small cell lung) greater than 100 µM, a TGI (EKVX NSCLC) of 67.8 µM and a TGI (HCC-2998 colon) of 85.5 µM. It also gave a GI50 (HCT-116 colon) of 18.1 µM, a TGI (HCT-116 colon) of 34.5 µM and a TGI (HCT-15 colon) of 69.6 µM. For the same compound, the TGI (HL-60(TB) leukemia) was 49.8 µM, the TGI (HOP-18 NSCLC) was greater than 100 µM and the TGI (HOP-62 NSCLC) was greater than 100 µM. For the same compound, the GI50 (HOP-92 NSCLC) was 15.9 µM, the TGI (HOP-92 NSCLC) was 35.1 µM and the TGI (HT29 colon) was greater than 92.7 µM. The TGI (IGROV1 ovarian) was 80.5 µM, the GI50 (K-562 leukemia) was 30.7 µM and the TGI (K-562 leukemia) was 60.5 µM. For the same compound, the GI50 (KM12 colon) was 19.2 µM, the TGI (KM12 colon) was 35.2 µM and the TGI (KM20L2 colon) was greater than 88.6 µM. The TGI (LOX IMVI melanoma) was 41.2 µM, the TGI (M19-MEL melanoma) was 31.8 µM and the GI50 (MALME-3M melanoma) was 22.6 µM. The TGI (MALME-3M melanoma) was 43.8 µM, the TGI (MCF7 breast) was 34.5 µM and the TGI (MOLT-4 leukemia) was 54.8 µM. For the same compound, the GI50 (NCI-H226 lung) was 50.7 µM, the TGI (NCI-H226 lung) was greater than 100 µM and the TGI (NCI-H23 lung) was 52.7 µM. The GI50 (NCI-H460 lung) was 19.9 µM, the TGI (NCI-H460 lung) was 38.6 µM and the TGI (NCI-H522 lung) was 56 µM. The TGI (NCI/ADR-RES ovarian) was greater than 100 µM, the GI50 (OVCAR-3 ovarian) was 22.4 µM and the TGI (OVCAR-3 ovarian) was 63.1 µM. The TGI (OVCAR-4 ovarian) was greater than 100 µM, the TGI (OVCAR-5 ovarian) was greater than 100 µM and the GI50 (OVCAR-8 ovarian) was 42.9 µM. It also gave a TGI (OVCAR-8 ovarian) of 92.1 µM, a TGI (P388 leukemia) of 52.2 µM and a TGI (P388/ADR leukemia) greater than 83.1 µM. It also gave a GI50 (RPMI-8226 leukemia) of 27.1 µM, a TGI (RPMI-8226 leukemia) of 54.9 µM and a TGI (RXF 393 renal) of 33.4 µM. For the same compound, the GI50 (SF-268 CNS) was 39.9 µM, the TGI (SF-268 CNS) was 75.8 µM and the TGI (SF-295 CNS) was greater than 100 µM. The TGI (SF-539 CNS) was 76.4 µM, the TGI (SK-MEL-2 melanoma) was 39.7 µM and the GI50 (SK-MEL-28 melanoma) was 33.4 µM. The TGI (SK-MEL-28 melanoma) was 59.7 µM, the TGI (SK-MEL-5 melanoma) was greater than 78.5 µM and the TGI (SK-OV-3 ovarian) was greater than 100 µM. The TGI (SN12C renal) was 47.9 µM, the TGI (SN12K1 renal) was 60.8 µM and the TGI (SNB-19 CNS) was greater than 100 µM. The TGI (SNB-75 CNS) was greater than 63.1 µM, the GI50 (SNB-78 CNS) was 37.9 µM and the TGI (SNB-78 CNS) was 91.2 µM. For the same compound, the GI50 (SW-620 colon) was 31.6 µM, the TGI (SW-620 colon) was 63.3 µM and the TGI (U251 CNS) was greater than 100 µM. For the same compound, the GI50 (UACC-257 melanoma) was 20.1 µM, the TGI (UACC-257 melanoma) was 44.8 µM and the TGI (UACC-62 melanoma) was 47.7 µM. The TGI (UO-31 renal) was greater than 100 µM.
`Cc1ccc2cc3cccc(C(=O)NCCN(C)C)c3nc2c1` gave a TGI (A498 renal) of 2.37 µM, a TGI (A549 NSCLC) of 5.05 µM and a TGI (CAKI-1 renal) of 10.8 µM. The TGI (CCRF-CEM leukemia) was 5.54 µM, the TGI (COLO 205 colon) was 2.51 µM and the TGI (DLD-1 colon) was 8.36 µM. The TGI (DMS 114 small cell lung) was 2.58 µM, the TGI (DMS 273 small cell lung) was 2.8 µM and the TGI (EKVX NSCLC) was 3.44 µM. The TGI (HCC-2998 colon) was 3.04 µM, the TGI (HCT-116 colon) was 6.23 µM and the TGI (HCT-15 colon) was 9.17 µM. It also gave a TGI (HL-60(TB) leukemia) of 2.49 µM, a TGI (HOP-18 NSCLC) of 7.36 µM and a TGI (HOP-62 NSCLC) of 6.17 µM. For the same compound, the TGI (HOP-92 NSCLC) was 2.75 µM, the TGI (HT29 colon) was 2.67 µM and the TGI (IGROV1 ovarian) was 9.09 µM. For the same compound, the TGI (K-562 leukemia) was greater than 31.3 µM, the TGI (KM12 colon) was 10 µM and the TGI (KM20L2 colon) was 3.08 µM. It also gave a TGI (LOX IMVI melanoma) of 6.08 µM, a TGI (M19-MEL melanoma) of 3.01 µM and a TGI (MALME-3M melanoma) of 2.49 µM. It also gave a TGI (MCF7 breast) of 5.19 µM, a TGI (NCI-H226 lung) of 4.16 µM and a TGI (NCI-H23 lung) of 3.4 µM. The TGI (NCI-H460 lung) was 1.94 µM, the TGI (NCI/ADR-RES ovarian) was 5.07 µM and the TGI (OVCAR-3 ovarian) was 5.67 µM. For the same compound, the TGI (OVCAR-4 ovarian) was 6.11 µM, the TGI (OVCAR-5 ovarian) was 4.28 µM and the TGI (OVCAR-8 ovarian) was 6.45 µM. For the same compound, the TGI (P388 leukemia) was 1.26 µM, the TGI (P388/ADR leukemia) was 1.46 µM and the TGI (RPMI-8226 leukemia) was 7.42 µM. It also gave a TGI (RXF 393 renal) of 2.73 µM, a TGI (SF-268 CNS) of 4.03 µM and a TGI (SF-295 CNS) of 3.91 µM. It also gave a TGI (SF-539 CNS) of 3.57 µM, a TGI (SK-MEL-2 melanoma) of 3.55 µM and a TGI (SK-MEL-28 melanoma) of 3.39 µM. It also gave a TGI (SK-MEL-5 melanoma) of 2.66 µM, a TGI (SK-OV-3 ovarian) of 7.87 µM and a TGI (SN12C renal) of 6.39 µM. It also gave a TGI (SN12K1 renal) of 5.59 µM, a TGI (SNB-19 CNS) of 8.1 µM and a TGI (SNB-75 CNS) of 4.75 µM. For the same compound, the TGI (SNB-78 CNS) was 7.78 µM, the TGI (SW-620 colon) was 6.46 µM and the TGI (U251 CNS) was 9.2 µM. For the same compound, the TGI (UACC-257 melanoma) was 2.74 µM, the TGI (UACC-62 melanoma) was 3.16 µM and the TGI (UO-31 renal) was 3.19 µM. The TGI (XF 498 CNS) was 3.68 µM.
